In patent publication US20180362587A1, “Compositions and Methods for Inhibiting CBP80 Binding to PGC1 Family of Co-Activators” (University of Rochester, priority 2015, published 2018) one finds IC50 data, which are given here for 22 molecules.

Square brackets hold non-standard residues; d marks the D form. Peptide text beside a SMILES is read from it. * marks the point of attachment. Crotonyl(E) = C/C=C/C(=O)*; Dab = NCC[C@H](N)C(=O)O; Aib = CC(C)(N)C(=O)O Bounds are passed on as bounds.

The target in assay [1] is T1, CBP80/CBP20 complex (Homo sapiens, UniProt Q09161).
T1 sequence (Q09161 1-790): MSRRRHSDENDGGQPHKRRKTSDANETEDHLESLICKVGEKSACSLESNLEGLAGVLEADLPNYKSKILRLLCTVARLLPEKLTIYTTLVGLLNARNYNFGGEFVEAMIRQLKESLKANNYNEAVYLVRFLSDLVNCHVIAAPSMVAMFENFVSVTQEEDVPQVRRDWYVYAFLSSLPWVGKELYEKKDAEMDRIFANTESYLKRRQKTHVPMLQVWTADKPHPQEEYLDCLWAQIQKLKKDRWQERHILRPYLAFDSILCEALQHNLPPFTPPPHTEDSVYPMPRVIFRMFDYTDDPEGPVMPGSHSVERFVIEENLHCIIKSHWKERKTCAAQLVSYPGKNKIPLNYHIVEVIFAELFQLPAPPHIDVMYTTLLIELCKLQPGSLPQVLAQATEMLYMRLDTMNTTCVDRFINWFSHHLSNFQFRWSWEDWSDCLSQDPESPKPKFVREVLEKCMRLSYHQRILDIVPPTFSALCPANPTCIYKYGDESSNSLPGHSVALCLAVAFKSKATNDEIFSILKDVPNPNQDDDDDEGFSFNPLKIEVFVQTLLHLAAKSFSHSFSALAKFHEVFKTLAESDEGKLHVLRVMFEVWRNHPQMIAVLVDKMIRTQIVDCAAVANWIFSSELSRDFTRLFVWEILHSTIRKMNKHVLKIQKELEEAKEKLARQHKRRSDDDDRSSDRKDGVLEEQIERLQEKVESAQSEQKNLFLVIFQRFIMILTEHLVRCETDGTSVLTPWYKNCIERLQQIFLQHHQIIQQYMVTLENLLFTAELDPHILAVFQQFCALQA
T1 sequence (P52298 1-156 partner): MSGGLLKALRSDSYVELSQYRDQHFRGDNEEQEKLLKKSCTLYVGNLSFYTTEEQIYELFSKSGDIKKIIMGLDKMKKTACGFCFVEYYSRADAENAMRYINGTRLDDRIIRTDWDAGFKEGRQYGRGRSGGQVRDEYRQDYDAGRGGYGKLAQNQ
The assay can be described thus: fluorescence polarization based competition assay (displacement of FITC-labeled PGC1β peptide). The class given is binding. As to conditions: 1 μM FITC-labeled PGC1β (FITC-Ahx-AMDFDSLLKEAQQSLH-NH2), 30 μM CBP80/CBP20 complex, HEPES buffer pH 7.5. Here is the method:
The ability of α-MOrPHs to disrupt the PGC1β-CBP80 interaction will be assessed and quantified via a fluorescence polarization-based competition assay, in which disruption of the complex formed between a fluorescein-conjugated PGC1β peptide and CBP80 is measured upon adding increasing concentrations of each inhibitory α-MOrPH (FIG. 5A). […] Initially, the length of the linker in the inhibitory α-MOrPH will be optimized for maximal activity toward disrupting the PGC1β-CBP80 interaction (e.g. using SP1-3, FIG. 4).
(§1) The relative activity of the PGC1β mimics toward disrupting the interaction between CBC and the fluorescein-conjugated PGC1β-derived peptide was measured in a competition assay. Briefly, a fixed amount of CBC and fluorescein-conjugated PGC1β-derived peptide are incubated with increasing amounts of the PGC1β mimic (FIG. 11A). From the resulting dose-dependent inhibition curves, the in vitro CBC inhibitory activity of the PGC1β mimic compound is measured based on their respective half-maximal inhibitory concentration (IC50) (FIG. 5B). Using this assay, various PGC1β mimics were evaluated for their relative ability to target CBC and disrupt its binding interaction with PGC1β. […] Short peptides derived from the C-terminal domain of PGC1β and PRC proteins, two other members of the PGC1 family of transcriptional coactivators, were also to bind CBC and inhibits its interaction with the fluorescein-labeled PGC1β peptide with IC50 values in the low micromolar range.
IC50 values were determined by adapting the fluorescence polarization assay described above to a competition format. 1 μM of the FITC-labeled PGC1β peptide (FITC-Ahx-AMDFDSLLKEAQQSLH-NH2) was incubated with 30 μM of the CBP80-CBP20 complex in HEPES Buffer (10 mM HEPES [pH 7.5], 50 mM NaCl and 5 mM 2-mercaptoethanol). The inhibitory peptide was added to the solution at varying concentrations, typically ranging from 1 to 200 μM. Half-maximal inhibitory concentration (IC50) values were calculated from the resulting inhibition curves as given by dose-dependent decrease in the fluorescence polarization signal. All measurements were performed at least in duplicates.
On the technique in general: Fluorescence polarisation rises when a labelled molecule tumbles more slowly, as on binding a larger partner.

Assay [2] has as its target T2, CBP80/CBP20 complex (human, UniProt Q09161 20-790; P52298 1-156, limits assumed).
T2 construct: Used in the fluorescence polarization assays; In the crystal it also carried the cap analogue (m7GpppG / m7GpppA); also called CBC complex; CBC
T2 sequence (looked up) 1: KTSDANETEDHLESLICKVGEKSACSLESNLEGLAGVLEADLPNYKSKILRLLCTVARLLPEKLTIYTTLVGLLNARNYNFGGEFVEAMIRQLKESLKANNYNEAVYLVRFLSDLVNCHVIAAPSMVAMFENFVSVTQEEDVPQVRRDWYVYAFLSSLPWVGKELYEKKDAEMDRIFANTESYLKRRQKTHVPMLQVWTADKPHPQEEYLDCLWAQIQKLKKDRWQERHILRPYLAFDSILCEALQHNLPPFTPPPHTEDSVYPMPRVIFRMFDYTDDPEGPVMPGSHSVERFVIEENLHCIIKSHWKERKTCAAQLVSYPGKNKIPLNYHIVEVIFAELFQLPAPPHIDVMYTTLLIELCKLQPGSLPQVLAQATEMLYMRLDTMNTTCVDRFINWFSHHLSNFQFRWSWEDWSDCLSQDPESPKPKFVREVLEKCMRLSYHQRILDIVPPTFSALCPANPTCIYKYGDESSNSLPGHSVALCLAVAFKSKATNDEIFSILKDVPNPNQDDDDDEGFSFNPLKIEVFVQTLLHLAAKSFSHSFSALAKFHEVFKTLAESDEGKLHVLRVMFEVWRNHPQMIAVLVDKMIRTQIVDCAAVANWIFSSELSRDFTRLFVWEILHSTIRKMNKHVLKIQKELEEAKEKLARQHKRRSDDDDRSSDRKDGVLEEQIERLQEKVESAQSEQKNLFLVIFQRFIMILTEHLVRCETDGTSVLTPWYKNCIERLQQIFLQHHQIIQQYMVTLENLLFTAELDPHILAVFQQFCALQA
T2 sequence (looked up) 2: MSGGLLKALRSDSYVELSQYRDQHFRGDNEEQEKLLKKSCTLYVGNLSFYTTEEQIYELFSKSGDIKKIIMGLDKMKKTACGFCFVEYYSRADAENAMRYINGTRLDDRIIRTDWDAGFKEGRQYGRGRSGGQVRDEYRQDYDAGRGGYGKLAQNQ
Briefly: FP competition assay; 1 µM FITC-Ahx-…-NH2 as competitor, 30 µM CBP80/CBP20 complex. How it is done:
as §1, with “(IC₅₀)” for “(IC50)”, “IC₅₀” for “IC50”
^aAc = acetyl; Biot = biotin; Ahx = 6-aminohexanoic acid; Aib = 2-aminoisobutyric acid; CrtDab = N^γ-crotonyl-2,4-diaminobutyric acid. C-terminal ‘-NH₂’ refers to amidated C-terminal end of the peptide. ^bIC₅₀ was determined using fluorescence polarization based competition assay in the presence of 1 μM of FITC-labeled PGC1β (FITC-Ahx-[…]-NH₂, where FITC is fluorescein-isothiocyanate) and 30 μM of the CBP80/CBP20 complex in HEPES buffer (10 mM HEPES, 50 mM NaCl, 5 mM BME, pH 7.5).
IC₅₀ values were determined by adapting the fluorescence polarization assay described above to a competition format. 1 μM of the FITC-labeled PGC1β peptide (FITC-Ahx-[…]-NH₂) was incubated with 30 μM of the CBP80-CBP20 complex in HEPES Buffer (10 mM HEPES [pH 7.5], 50 mM NaCl and 5 mM 2-mercaptoethanol).

For orientation: IC50 means the concentration that inhibits the measured activity by half. A low value points to greater potency. Take “Ac-MAFDSLLKAAQQS-NH2 [PGC1β-15, Ac-MAFDSLLKAAQQS-NH2]”: the IC50 in assay [1] is below 100 µM.

With “Ac-MDADSLLKEAQQS-NH2 [PGC1β-3A, Ac-MDADSLLKEAQQS-NH2]”, in assay [1], the IC50 is above 200 µM.

For `CSCC[C@H](NC(C)=O)C(=O)N[C@@H](C)C(=O)N[C@@H](Cc1ccccc1)C(=O)N[C@@H](CC(=O)O)C(=O)N[C@@H](CO)C(=O)N[C@@H](CC(C)C)C(=O)N[C@@H](CC(C)C)C(=O)N[C@@H](CCCCN)C(=O)NC(C)(C)C(=O)N[C@@H](C)C(=O)N[C@@H](CCC(N)=O)C(=O)N[C@@H](CCC(N)=O)C(=O)N[C@@H](CO)C(N)=O` [PGC1β-16, Ac-MAFDSLLK(Aib)AQQS-NH2] (Ac-MAFDSLLK[Aib]AQQS-NH2), the half-maximal inhibitory concentration (IC50) in assay [1] is below 100 µM.

For the molecule “Ac-MDFDSLAKEAQQS-NH2 [PGC1β-7A, Ac-MDFDSLAKEAQQS-NH2]”, the IC50 in assay [1] is above 200 µM.

In turn, “Ac-MDFDSALKEAQQS-NH2 [PGC1β-6A, Ac-MDFDSALKEAQQS-NH2]” returned an IC50 in assay [1] above 200 µM.

Take “Ac-MAFDSLLKNAAAS-NH2 [PGC1β-13, Ac-MAFDSLLKNAAAS-NH2]”: the IC50 in assay [1] was below 100 µM.

Take “Ac-MDFDALLKEAQQS-NH2 [PGC1β-5A, Ac-MDFDALLKEAQQS-NH2]”: the IC50 in assay [1] stood at 64 ± 2 µM.

“Ac-MDFDSLLKEAAQS-NH2 [PGC1β-11A, Ac-MDFDSLLKEAAQS-NH2]” displayed an IC50 in assay [1] of 64 ± 2 µM.

For “Ac-MAFDSMLKAAQQS-NH2 [PGC1β-17, Ac-MAFDSMLKAAQQS-NH2]”, the half-inhibitory concentration (IC50) in assay [1] is below 100 µM.

With “Ac-MDFDSLLKEGQQS-NH2 [PGC1β-10A, Ac-MDFDSLLKEGQQS-NH2]”, the IC50 in assay [1] is above 200 µM.

In assay [1], `C/C=C/C(=O)NCC[C@H](NC(=O)[C@H](CC(C)C)NC(=O)[C@H](CC(C)C)NC(=O)[C@H](CO)NC(=O)[C@H](CC(=O)O)NC(=O)[C@H](Cc1ccccc1)NC(=O)[C@H](CC(=O)O)NC(=O)[C@H](CCSC)NC(C)=O)C(=O)N[C@@H](CCC(=O)O)C(=O)N[C@@H](C)C(=O)N[C@@H](CCC(N)=O)C(=O)N[C@@H](CCC(N)=O)C(=O)N[C@@H](CO)C(N)=O` [PGC1β-18, Ac-MDFDSLL(CrtDab)EAQQS-NH2] (Ac-MDFDSLL[Dab](Crotonyl(E))EAQQS-NH2) returned an IC50 below 100 µM.

Turning to “Ac-MDFASLLKEAQQS-NH2 [PGC1β-4A, Ac-MDFASLLKEAQQS-NH2]”, the 50% inhibitory concentration (IC50) in assay [1] was above 200 µM.

The molecule “Ac-AMDFDSLLKEAQQSLH-NH2 [PGC1β-Cterm, Ac-AMDFDSLLKEAQQSLH-NH2]” showed an IC50 in assay [1] of around 35 µM.

In assay [1], “Ac-MDFDSLLKEAQQS-NH2 [PGC1β-wt, Ac-MDFDSLLKEAQQS-NH2]” displayed a half-inhibitory concentration (IC50) of 69 µM.

In assay [1], “Ac-MAFDSLLKNAAQS-NH2 [PGC1β-14, Ac-MAFDSLLKNAAQS-NH2]” gave a half-inhibitory concentration (IC50) below 100 µM.

B1: PGC1β-2A (Ac-MAFDSLLKEAQQS-NH2) (peptide)
peptide: Ac-MAFDSLLKEAQQS-NH2
Molecule B1 gave an IC50 in assay [2] of 50 µM.

B2: PGC1β-8A (Ac-MDFDSLLAEAQQS-NH2) (peptide)
peptide: Ac-MDFDSLLAEAQQS-NH2
Regarding B2, in assay [2], the IC50 was found to be 72 µM.

B3: PGC1β-12A (Ac-MDFDSLLKEAQAS-NH2) (peptide)
peptide: Ac-MDFDSLLKEAQAS-NH2
In the case of B3, the IC50 in assay [2] worked out at 56 µM.

B4: PGC1β-19 (Ac-MDFDSLLKEAQQSRRRRRRRR-NH2) (peptide)
peptide: Ac-MDFDSLLKEAQQSRRRRRRRR-NH2
As to B4, in assay [2], the IC50 is 80 µM.

B5: PRC-Cterm (Ac-SLDFDDLLKQAQKNLRR-NH2) (peptide)
peptide: Ac-SLDFDDLLKQAQKNLRR-NH2
The molecule B5 had a concentration for half-maximal inhibition (IC50) in assay [2] of 93 µM.

B6: PGC1β-Cterm (Ac-AMDFDSLLKEAQQSLH-NH2) (peptide)
peptide: Ac-AMDFDSLLKEAQQSLH-NH2
notes: also called PGC1β-Cterm peptide; unlabeled version of the PGC1β peptide
For the molecule B6, the IC50 in assay [2] came to 32 µM. This IC50 is about 2.9-fold lower than that of the molecule before.

B7: PGC1α-Cterm (Ac-SLDFDSLLKEAQRSLRR-NH2) (peptide)
peptide: Ac-SLDFDSLLKEAQRSLRR-NH2
Consider B7, for which the IC50 in assay [2] came out at 26 µM.
